Target: human RIP1 kinase domain (2-375) (Homo sapiens (Human), UniProt Q13546)
Experiment: RIP1 kinase inhibition assay (Transcreener ADP biochemical enzyme assay)
Settings: Ki app (Morrison tight-binding fit); 50 nM enzyme, 50 uM ATP, 2 hours incubation, fluorescence polarization
Method: RIP1 Kinase Inhibition Assays (Biochemical Assay):
The compounds of the present invention were tested for their capacity to inhibit RIP K activity as described below.
Enzyme assay: The ability of the receptor interacting protein kinase (RIPK1) to catalyze the hydrolysis of adenosine-5′-triphosphate (ATP) is monitored using the Transcreener ADP (adenosine-5′-diphosphate) assay (BellBrook Labs). Purified human RIP1 kinase domain (2-375) (50 nM) derived from a baculovirus-infected insect cell expression system is incubated with test compounds for 2 hours in 50 mM Hepes buffer (pH 7.5) containing 30 mM MgCl2, 1 mM dithiothreitol, 50 uM ATP, 0.002% Brij-35, and 0.5% dimethyl sulfoxide (DMSO). Reactions are quenched by the addition of 1× Bell Brooks Stop buffer B (20 mM Hepes (ph7.5), 40 mM ethylenediaminetetraacetic acid and 0.02% Brij-35) containing an additional 12 mM EDTA and 55 ug/mL ADP2 antibody and 4 nM ADP-AlexaFluor® 633 tracer. The tracer bound to the antibody is displaced by the ADP generated during the RIP1K reaction, which causes a decrease in fluorescence polarization that is measured by laser excitation at 633 nm with a FP microplate reader M1000. Fractional activity was plotted against test article concentration. Using Genedata Screener software (Genedata; Basel, Switzerland), the data were fit to the tight-binding apparent inhibition constant (Ki^app) Morrison equation [Williams, J. W. and Morrison, J. F. (1979) The kinetics of reversible tight-binding inhibition. Methods Enzymol 63: 437-67]. The following equation was used to calculate fractional activity and Ki^app:
[formula] where [E]T and [I]T are the total concentrations of active enzyme and test article, respectively.

human RIP1 kinase domain (2-375), sequence (Q13546 2-375): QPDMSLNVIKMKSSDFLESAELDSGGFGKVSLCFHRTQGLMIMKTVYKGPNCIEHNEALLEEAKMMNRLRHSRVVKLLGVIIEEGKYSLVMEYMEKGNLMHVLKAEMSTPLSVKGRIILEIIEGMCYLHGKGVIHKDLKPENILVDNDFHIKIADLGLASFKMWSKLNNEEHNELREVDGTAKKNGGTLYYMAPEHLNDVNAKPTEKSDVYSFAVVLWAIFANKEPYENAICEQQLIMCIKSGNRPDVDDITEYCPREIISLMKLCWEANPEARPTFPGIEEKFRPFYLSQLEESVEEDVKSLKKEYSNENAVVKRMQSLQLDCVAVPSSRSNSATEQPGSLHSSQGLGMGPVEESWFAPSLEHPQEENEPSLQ

| Compound | Ki |
| --- | --- |
| O=C(c1nc2n(n1)[C@@H](c1ccccc1)CC2(F)F)N1CC(F)(F)C1 (single isomer, unassigned) [Example 1a] | 8 nM |
| O=C(c1nc2n(n1)[C@@H](c1ccccc1)CC2(F)F)N1CC(F)(F)C1 (single isomer, unassigned) [Example 1b] | > 10000 nM |
| CC[C@@]1(C)OCc2cnc(C(=O)N3CC(F)(F)C3)cc21 (single isomer, unassigned) [Example 7] | 1980 nM |
| O=C(c1nc2n(n1)[C@H](c1ccccc1F)CC2)N1CC(F)(F)C1 (single isomer, unassigned) [Example 10] | > 10000 nM |
| O=C(c1nc2n(n1)[C@@H](c1ccccc1F)CC2)N1CC(F)(F)C1 (single isomer, unassigned) [Example 11] | 9 nM |
| O=C(c1nc2n(n1)[C@@H](c1ccccc1F)CC2)N1CCC1 (single isomer, unassigned) [Example 12] | 137 nM |
| O=C(c1nc2n(n1)CC[C@H]2c1ccccc1)N1CC(F)(F)C1 (single isomer, unassigned) [Example 15] | 66 nM |
| CC1(F)CN(C(=O)c2nc3n(n2)[C@@H](c2ccccc2)CC3(F)F)C1 (single isomer, unassigned) [Example 38] | 48 nM |
| O=C(c1nc2n(n1)[C@@H](c1ccccc1)CC2(F)F)N1CC(F)C1 (single isomer, unassigned) [Example 48] | 71 nM |
| O=C(c1nc2n(n1)[C@H](c1ccccc1)C[C@@H]2F)N1CC[C@H]1C(F)F (single isomer, unassigned) [Example 52] | 5 nM |
| O=C(c1nc2n(n1)[C@@H](c1ccccc1)C[C@H]2F)N1CCC[C@@H]1C(F)F (single isomer, unassigned) [Example 65] | 36 nM |
| O=C(c1nc2n(n1)[C@H](c1ccccc1)CC2)N1CC(F)(F)C1 (stereo in doubt) [Example 31, (3,3-difluoroazetidin-1-yl)-[rac-(5S)-5-phenyl-6,7-dihydro-5H-pyrrolo[1,2-b][1,2,4]triazol-2-yl]methanone] | 7100 nM |
| O=C(c1nc2n(n1)[C@@H](c1ccccc1)CC2)N1CC(F)(F)C1 (stereo in doubt) [Example 32, (3,3-difluoroazetidin-1-yl)-[rac-(5R)-5-phenyl-6,7-dihydro-5H-pyrrolo[1,2-b][1,2,4]triazol-2-yl]methanone] | 66 nM |
| O=C(c1nc2n(n1)[C@@H](c1ccccc1)C[C@H]2F)N1CCC(F)(F)C1 (stereo in doubt) [Example 54, (3,3-difluoropyrrolidin-1-yl)-[rac-(5R,7R)-7-fluoro-5-phenyl-6,7-dihydro-5H-pyrrolo [1,2-b][1,2,4]triazol-2-yl]methanone] | 11 nM |

The remaining lines, values ahead:

| Ki | Compound |
| --- | --- |
| 150 nM | O=C(c1nc2n(n1)[C@H](c1ccccc1)C[C@@H]2F)N1CC2CC1CC2(F)F (mixture of isomers) [Example 87, (5,5-difluoro-2-azabicyclo[2.2.1]heptan-2-yl)-[rac-(5S,7S)-7-fluoro-5-phenyl-6,7-dihydro-5H-pyrrolo[1,2-b][1,2,4]triazol-2-yl]methanone] |
| 54 nM | O=C(c1nc2n(n1)[C@H](c1ccccc1)C[C@@H]2F)N1CCc2ccncc2C1 (racemic) [Example 88, 3,4-dihydro-1H-2,7-naphthyridin-2-yl-[rac-(5S,7S)-7-fluoro-5-phenyl-6,7-dihydro-5H-pyrrolo[1,2-b][1,2,4]triazol-2-yl]methanone] |
| 130 nM | O=C(c1nc2n(n1)[C@H](c1ccccc1)C[C@@H]2F)N1CCc2ncccc2C1 (racemic) [Example 89, 7,8-dihydro-5H-1,6-naphthyridin-6-yl-[rac-(5S,7S)-7-fluoro-5-phenyl-6,7-dihydro-5H-pyrrolo[1,2-b][1,2,4]triazol-2-yl]methanone] |
| 620 nM | CN(C(=O)c1nc2n(n1)[C@H](c1ccccc1)C[C@@H]2F)c1ccccc1 (racemic) [Example 90, rac-(5S,7S)-7-fluoro-N-methyl-N,5-diphenyl-6,7-dihydro-5H-pyrrolo[1,2-b][1,2,4]triazole-2-carboxamide] |
| 42 nM | CN(CC(F)F)C(=O)c1nc2n(n1)[C@H](c1ccccc1)C[C@@H]2F (racemic) [Example 91, rac-(5S,7S)-N-(2,2-difluoroethyl)-7-fluoro-N-methyl-5-phenyl-6,7-dihydro-5H-pyrrolo[1,2-b] [1,2,4]triazole-2-carboxamide] |
| 100 nM | CN(CC(F)(F)F)C(=O)c1nc2n(n1)[C@H](c1ccccc1)C[C@@H]2F (racemic) [Example 92, rac-(5S,7S)-7-fluoro-N-methyl-5-phenyl-N-(2,2,2-trifluoroethyl)-6,7-dihydro-5H-pyrrolo [1,2-b][1,2,4]triazole-2-carboxamide] |
| 30 nM | O=C(c1nc2n(n1)[C@H](c1ccccc1)C[C@@H]2F)N1CCC(Cc2ccccc2)C1 (mixture of isomers) [Example 93, (3-benzylpyrrolidin-1-yl)-[rac-(5S,7S)-7-fIuoro-5-phenyl-6,7-dihydro-5H-pyrrolo[1,2-b][1,2,4]triazol-2-yl]methanone] |
| 160 nM | O=C(c1nc2n(n1)[C@H](c1ccccc1)C[C@@H]2F)N1CCCc2ccccc2C1 (racemic) [Example 94, [rac-(5S,7S)-7-fluoro-5-phenyl-6,7-dihydro-5H-pyrrolo[1,2-b][1,2,4]triazol-2-yl]-(1,3,4,5-tetrahydro-2-benzazepin-2-yl)methanone] |
| 18 nM | O=C(c1nc2n(n1)[C@H](c1ccccc1)C[C@@H]2F)N1CCc2cccc(F)c2C1 (racemic) [Example 95, (8-fluoro-3,4-dihydro-1H-isoquinolin-2-yl)-[rac-(5S,7S)-7-fluoro-5-phenyl-6,7-dihydro-5H-pyrrolo[1,2-b][1,2,4]triazol-2-yl]methanone] |
| 57 nM | CC1c2c(F)cccc2CCN1C(=O)c1nc2n(n1)[C@H](c1ccccc1)C[C@@H]2F (mixture of isomers) [Example 96, (8-fluoro-1-methyl-3,4-dihydro-1H-isoquinolin-2-yl)-[rac-(5S,7S)-7-fluoro-5-phenyl-6,7-dihydro-5H-pyrrolo[1,2-b][1,2,4]triazol-2-yl]methanone] |
| 58 nM | CC1c2ccccc2CCN1C(=O)c1nc2n(n1)[C@H](c1ccccc1)C[C@@H]2F (mixture of isomers) [Example 97, (1-methyl-3,4-dihydro-1H-isoquinolin-2-yl)-[rac-(5S,7S)-7-fluoro-5-phenyl-6,7-dihydro-5H-pyrrolo[1,2-b][1,2,4]triazol-2-yl]methanone] |
| 270 nM | O=C(c1nc2n(n1)[C@@H](c1ccccc1)C[C@H]2F)N1CC2C(C1)C2(F)F (mixture of isomers) [Example 100, (6,6-difluoro-3-azabicyclo[3.1.0]hexan-3-yl)-[rac-(5R,7R)-7-fluoro-5-phenyl-6,7-dihydro-5H-pyrrolo[1,2-b][1,2,4]triazol-2-yl]methanone] |
| 82 nM | O=C(c1nc2n(n1)[C@@H](c1ccccc1)C[C@H]2F)N1CC2CC2C1 (mixture of isomers) [Example 101, 3-azabicyclo[3.1.0]hexan-3-yl-[rac-(5R, 7R)-7-fluoro-5-phenyl-6,7-dihydro-5H-pyrrolo[1,2-b][1,2,4]triazol-2-yl] methanone] |
| 240 nM | O=C(c1cc2n(n1)C(c1ccccc1)CC2)N1CC(F)(F)C1 (racemic) [Example 102, (3,3-difluoroazetidin-1-yl)-(6-phenyl-5,6-dihydro-4H-pyrrolo[1,2-b]pyrazol-2-yl)methanone] |
| 31 nM | O=C(c1nc2n(n1)[C@@H](c1ccccc1)C[C@H]2F)N1CCC1 (racemic) [Example 104, azetidin-1-yl-[rac-(5R,7R)-7-fluoro-5-phenyl-6,7-dihydro-5H-pyrrolo [1,2-b][1,2,4]triazol-2-yl]methanone] |
| 56 nM | CN(C)C(=O)c1nc2n(n1)[C@@H](c1ccccc1)C[C@H]2F (racemic) [Example 105, rac-(5R,7R)-7-fluoro-N,N-dimethyl-5-phenyl-6,7-dihydro-5H-pyrrolo[1,2-b][1,2,4]triazole-2-carboxamide] |
| 5 nM | C[C@H]1[C@@H](C(F)(F)F)CCN1C(=O)c1nc2n(n1)[C@H](c1ccccc1)C[C@@H]2F (single isomer, unassigned) [Example 86] |
| 15 nM | O=C(c1nc2n(n1)[C@@H](c1ccccc1)C[C@H]2F)N1CCn2nccc2C1 (stereo in doubt) [Example 66, 6,7-dihydro-4H-pyrazolo[1,5-a]pyrazin-5-yl-[rac-(5R,7R)-7-fluoro-5-phenyl-6,7-dihydro-5H-pyrrolo[1,2-b][1,2,4]triazol-2-yl]methanone] |
| 5 nM | O=C(c1nc2n(n1)[C@@H](c1ccccc1)C[C@H]2F)N1CCc2cccnc2C1 (stereo in doubt) [Example 67, 6,8-dihydro-5H-1,7-naphthyridin-7-yl-[rac-(5R,7R)-7-fluoro-5-phenyl-6,7-dihydro-5H-pyrollo[1,2-b][1,2,4]triazol-2-yl]methanone] |
| 52 nM | O=C(c1nc2n(n1)[C@H](c1ccccc1)C[C@@H]2F)N1CCn2nccc2C1 (stereo in doubt) [Example 69, 6,7-dihydro-4H-pyrazolo[1,5-a]pyrazin-5-yl-[rac-(5S,7S)-7-fluoro-5-phenyl-6,7-dihydro-5H-pyrrolo[1,2-b][1,2,4]triazol-2-yl]methanone] |

Source: patent US11071721B2, “Bicyclic amide compounds and methods of use thereof” (Genentech, Inc., priority 2016, dated 2021)
